The text below walks through data of publication PMC8041433 (Environmental Health Perspectives, 2021).

The term IC50 denotes the point on the concentration scale where inhibition reaches its midpoint. Usually AC50 stands for the midpoint of the concentration-response curve, whichever way the signal moves.

In one experiment the target is AChE in SH-SY5Y cells (Homo sapiens, UniProt P22303). The experiment in a line: cell-based.
Experiment [1] deals with AChE in neural stem cell spheroids (Homo sapiens, UniProt P22303). The experiment in a line: cell-based. The following applies: for IC50: potency (IC50).
AChE in neural stem cell spheroids, sequence (P22303 32-614): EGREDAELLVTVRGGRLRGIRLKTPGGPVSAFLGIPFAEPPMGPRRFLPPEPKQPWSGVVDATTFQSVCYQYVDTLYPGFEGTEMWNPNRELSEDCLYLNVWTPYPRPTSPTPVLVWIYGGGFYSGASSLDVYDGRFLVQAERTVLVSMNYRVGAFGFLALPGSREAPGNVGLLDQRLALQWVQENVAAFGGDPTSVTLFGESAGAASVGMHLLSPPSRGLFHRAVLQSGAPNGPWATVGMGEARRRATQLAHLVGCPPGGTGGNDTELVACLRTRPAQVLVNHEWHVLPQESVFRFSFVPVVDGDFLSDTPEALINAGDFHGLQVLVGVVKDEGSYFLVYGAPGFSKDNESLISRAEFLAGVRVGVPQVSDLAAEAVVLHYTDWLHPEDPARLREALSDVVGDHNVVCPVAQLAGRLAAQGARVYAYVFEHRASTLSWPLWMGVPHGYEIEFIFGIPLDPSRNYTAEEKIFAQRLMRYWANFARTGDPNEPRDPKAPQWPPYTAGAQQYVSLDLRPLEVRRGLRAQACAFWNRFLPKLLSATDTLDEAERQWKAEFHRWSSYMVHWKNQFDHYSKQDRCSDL
Experiment [2] concerns the target AChE in SH-SY5Y spheroids (Homo sapiens, UniProt P22303). The experiment in a line: cell-based. The settings on record: potency (IC50).
The target in experiment [3] is AChE in neural stem cells (Homo sapiens, UniProt P22303). In words: cell-based.
AChE in neural stem cells, sequence (P22303 32-614): as above
Experiment [4] addresses T1, recombinant human AChE (Homo sapiens, UniProt P22303).
The target of experiment [5] is T1, recombinant human AChE. The experiment in a line: biochemical. The class given is biochemical. The settings on record: for AC50: AC50 (uM).
The target in experiment [6] is T1, recombinant human AChE. In words: biochemical.
Experiment [7] concerns the target T1, recombinant human AChE. In words: biochemical. The source holds these as a separate data set.
The target of experiment [8] is T1, recombinant human AChE. The experiment in a line: biochemical. This is another data set of the same source.
[9] abbreviates: potency (IC50), SH-SY5Y cells monolayer.
The mark [10] stands for this setting: Neural stem cell spheroid (48 h).
Where [11] appears, read: potency (IC50), Enzyme with microsomes.
[12] abbreviates: Neural stem cell spheroid (24 h).

“And” between values parts separate entries of the source, which are not always exact repeats. Equal entries are not always repeated. Structures can show the parent of a compound that is named as a salt. Where two headings read alike, the source gives them in different places.
Throughout, for IR or R: key: Reversible (R); Irreversible (IR); ND, not detected in enzyme-based AChE inhibition assay from current study.

AChE in SH-SY5Y cells, sequence (P22303 32-614): as above
AChE in SH-SY5Y spheroids, sequence (P22303 32-614): as above
T1 sequence (P22303 32-614): as above

For `CCN1CCC2(CC1)COc1cc3c(cc12)N(C(=O)c1ccc(-c2ccc(-c4nnc(C)o4)cc2C)cc1)CC3.Cl` [SB236057A], the “CC-v2 (curve classes)” value is -2.1 at AChE in SH-SY5Y cells, 4 on recombinant human AChE [4] and -2.1 on recombinant human AChE [6]. Also, the 50% inhibitory concentration (IC50) is 29.3 µM and 23.2 µM against AChE in SH-SY5Y cells (IC50 (uM)); 33.8 ± 2.29 µM against AChE in SH-SY5Y cells (setting [9]); 4.03 µM in [1] (setting [10]); 27.8 ± 11.7 µM in [2] (SH-SY5Y spheroids (24 h)); 25.9 ± 2.98 µM in [2] (SH-SY5Y spheroids (48 h)); 42.6 ± 2.88 µM in experiment [3]. Also, the IC50 at recombinant human AChE [6] (IC50 (uM)) was determined as 32.8 µM; on recombinant human AChE [6] (potency (IC50), Enzyme), 38.3 ± 6.89 µM; at recombinant human AChE [7], 67.8 ± 8.64 µM; at recombinant human AChE [8] (setting [11]) it was 66 ± 15.1 µM. Also, in experiment [1], the “potency (IC50), Neural stem cell spheroid (24 h)” value was “Inactive”. Moreover, the Efficacy at recombinant human AChE [4] is listed as 0; at recombinant human AChE [6], -86.107. Also, the “IR or R” value on recombinant human AChE [5] is on record as “R”. For the same compound, the AC50 on recombinant human AChE [5] (activity_5) is 72.8 µM and 64.9 µM and 45.9 µM; on recombinant human AChE [5] (activity_10), 51.5 µM and 91.6 µM; at recombinant human AChE [5] (activity_60), 64.9 µM and 51.5 µM and 72.8 µM.

Consider `CCOC(=O)C(SP(=S)(OC)OC)c1ccccc1` (stereo not drawn) [Phenthoate], for which the “CC-v2 (curve classes)” value on AChE in SH-SY5Y cells was -1.1 and -2.1; on recombinant human AChE [4] it was -3; on recombinant human AChE [6], -2.2. Also, the half-maximal inhibitory concentration (IC50) on AChE in SH-SY5Y cells (IC50 (uM)) was 31.7 µM and 22.4 µM and 25.2 µM; against AChE in SH-SY5Y cells (setting [9]), 12.6 ± 1.44 µM; in experiment [1] (setting [12]) it was 26.5 ± 11.5 µM; in experiment [1] (setting [10]), 8.66 µM; in experiment [2] (SH-SY5Y spheroids (24 h)) it was 1.01 ± 1.29 µM; in [2] (SH-SY5Y spheroids (48 h)) it was 20.4 ± 5.69 µM. Also, the 50% inhibitory concentration (IC50) in experiment [3] was determined as 33.2 ± 15.3 µM; at recombinant human AChE [6] (IC50 (uM)) it was 71 µM; at recombinant human AChE [6] (potency (IC50), Enzyme), 25.1 ± 2.88 µM; on recombinant human AChE [7], 38.1 ± 2.48 µM; at recombinant human AChE [8] (IC50 (uM)), 79.6 µM; at recombinant human AChE [8] (setting [11]), 29.1 ± 1.97 µM. Moreover, the Efficacy at recombinant human AChE [4] is listed as -48.701; at recombinant human AChE [6], -77.281. The concentration at half-maximal activity (AC50) at recombinant human AChE [5] (activity_5) was 44.4 µM; on recombinant human AChE [5] (activity_10) it was 49.8 µM and 39.5 µM; on recombinant human AChE [5] (activity_60), 39.5 µM and 28 µM and 31.4 µM.

Regarding `CNC(=O)Oc1ccc(N(C)C)c(C)c1` [Aminocarb], the “CC-v2 (curve classes)” value was -1.1 at AChE in SH-SY5Y cells, -2.1 on recombinant human AChE [4] and -1.1 at recombinant human AChE [6]. For the same compound, the IC50 is 5.64 µM and 7.1 µM and 6.33 µM against AChE in SH-SY5Y cells (IC50 (uM)); 5 ± 0.57 µM against AChE in SH-SY5Y cells (setting [9]); 25.7 ± 7.15 µM in experiment [1] (setting [12]); 29.1 µM in experiment [1] (setting [10]); 12.3 ± 9.41 µM in experiment [2] (SH-SY5Y spheroids (24 h)); 6.85 ± 3.73 µM in experiment [2] (SH-SY5Y spheroids (48 h)). In addition, the IC50 stood at 11.7 ± 2.1 µM in experiment [3]; 7.92 ± 0.91 µM at recombinant human AChE [6] (potency (IC50), Enzyme); 9.57 ± 0.62 µM at recombinant human AChE [7]; 8.21 ± 0.55 µM on recombinant human AChE [8] (setting [11]). The Efficacy was -71.886 at recombinant human AChE [4] and -98.887 on recombinant human AChE [6]. Besides, on recombinant human AChE [5], the half-maximal activity concentration (AC50) was 17.7 µM and 22.2 µM and 12.5 µM and 28 µM and 25 µM and 7.03 µM and 11.1 µM and 7.89 µM.

`Cl.Clc1cc(Cl)c2c(c1)N=C1CCCCCN1C2` [PharmaGSID_47259]: the “CC-v2 (curve classes)” value at AChE in SH-SY5Y cells, on recombinant human AChE [4] and on recombinant human AChE [6] was -1.1 throughout. Besides, the IC50 against AChE in SH-SY5Y cells (IC50 (uM)) is 0.776 µM and 0.692 µM; against AChE in SH-SY5Y cells (setting [9]), 0.87 ± 0.18 µM; in experiment [1] (setting [12]), 13.5 ± 9.25 µM; in experiment [1] (setting [10]), 22 µM; in experiment [2] (SH-SY5Y spheroids (24 h)), 2.24 ± 2.76 µM; in experiment [2] (SH-SY5Y spheroids (48 h)) it was 0.85 ± 0.21 µM. Also, the IC50 in [3] turned out to be 10.7 ± 2.66 µM; at recombinant human AChE [6] (potency (IC50), Enzyme) it was 0.54 ± 0.06 µM; on recombinant human AChE [7], 1.54 ± 0.18 µM; at recombinant human AChE [8] (setting [11]), 1.79 ± 0.22 µM. In addition, the Efficacy on recombinant human AChE [4] is given as -90.391; on recombinant human AChE [6] it was -94.138. In addition, at recombinant human AChE [5], the “IR or R” value was “R”. Further, the AC50 on recombinant human AChE [5] (activity_5) is 1.09 µM and 0.544 µM; at recombinant human AChE [5] (activity_10) it was 0.153 µM and 1.22 µM and 1.09 µM; at recombinant human AChE [5] (activity_60) it was 0.968 µM and 0.172 µM and 1.22 µM.

`CN1C(=O)COc2c(C(=O)NC3CN4CCC3CC4)cc(Cl)cc21` (stereo not drawn) [Azasetron hydrochloride, reference compound]: the “CC-v2 (curve classes)” value on AChE in SH-SY5Y cells was -2.1 and -2.2; at recombinant human AChE [4] it was 4; on recombinant human AChE [6] it was -2.2. Moreover, the IC50 against AChE in SH-SY5Y cells (IC50 (uM)) was 38.9 µM and 34.7 µM and 17.4 µM; against AChE in SH-SY5Y cells (setting [9]) it was 6.6 µM; in [1] (setting [12]), 16.5 µM; in experiment [1] (setting [10]), 18.8 µM; in experiment [2] (SH-SY5Y spheroids (24 h)) it was 9.64 µM; in [2] (SH-SY5Y spheroids (48 h)), 6.85 µM. Moreover, the concentration for half-maximal inhibition (IC50) is 6.88 µM in experiment [3]; 30.9 µM on recombinant human AChE [6] (IC50 (uM)); 7.72 µM on recombinant human AChE [6] (potency (IC50), Enzyme); 8.98 ± 0.61 µM on recombinant human AChE [7]; 8.97 µM on recombinant human AChE [8] (setting [11]). The Efficacy at recombinant human AChE [4] was 0; on recombinant human AChE [6] it was -34.351. In addition, the “IR or R” value at recombinant human AChE [5] is given as “R”. Also, the AC50 on recombinant human AChE [5] is 17.2 µM (2×) and 3.43 µM and 21.7 µM and 19.3 µM (2×) and 12.2 µM (2×) and 15.3 µM.
